The target of one experiment is GSK3β (Homo sapiens, UniProt P49841). In words: GSK3β kinase assay (Caliper LabChip3000 mobility shift, fluoresceinated peptide substrate). The following applies: 250 pM enzyme, 20 uM ATP, 1.5 uM peptide, 20 hours room temperature; first value of cell GSK3β/GSK3α; read-out: GSK3β (nM), IC50. It counts as biochemical.
The subject of another experiment is pTau. In words: pTau assay (no method described). Format: cell-based.
The target in another experiment is GSK3α (Homo sapiens, UniProt P49840). In words: GSK3α kinase assay (Caliper LabChip3000 mobility shift, fluoresceinated peptide substrate).
Chain of GSK3α (P49840 whole entry, species assumed): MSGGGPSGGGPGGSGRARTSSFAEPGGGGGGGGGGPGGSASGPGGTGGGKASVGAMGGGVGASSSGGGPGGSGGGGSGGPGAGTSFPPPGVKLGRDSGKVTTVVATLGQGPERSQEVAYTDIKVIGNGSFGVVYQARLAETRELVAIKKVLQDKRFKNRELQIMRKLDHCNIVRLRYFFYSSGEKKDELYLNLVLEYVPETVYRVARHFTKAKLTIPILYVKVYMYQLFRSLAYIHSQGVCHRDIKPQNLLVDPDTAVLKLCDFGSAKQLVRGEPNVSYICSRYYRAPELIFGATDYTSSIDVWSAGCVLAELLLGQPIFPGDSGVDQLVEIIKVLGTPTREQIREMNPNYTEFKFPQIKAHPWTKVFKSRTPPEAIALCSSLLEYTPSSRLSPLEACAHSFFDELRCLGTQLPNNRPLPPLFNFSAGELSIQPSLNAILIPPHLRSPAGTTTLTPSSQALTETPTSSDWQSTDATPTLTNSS

Chain of GSK3β (P49841 whole entry, species assumed): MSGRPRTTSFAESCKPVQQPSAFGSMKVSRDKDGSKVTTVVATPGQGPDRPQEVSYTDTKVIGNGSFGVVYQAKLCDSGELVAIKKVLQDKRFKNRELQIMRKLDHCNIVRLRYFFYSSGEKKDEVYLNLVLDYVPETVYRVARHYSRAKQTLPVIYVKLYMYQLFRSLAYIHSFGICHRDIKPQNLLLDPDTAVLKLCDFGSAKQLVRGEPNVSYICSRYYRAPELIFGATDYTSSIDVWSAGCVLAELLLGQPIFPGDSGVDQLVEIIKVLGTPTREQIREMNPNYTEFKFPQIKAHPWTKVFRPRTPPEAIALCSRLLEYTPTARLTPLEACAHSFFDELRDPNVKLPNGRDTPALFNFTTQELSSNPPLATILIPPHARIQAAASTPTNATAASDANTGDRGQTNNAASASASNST

Take `O=C(Nc1cncc(-c2ccccc2F)c1)c1ccnc(NCC2CC2)n1` [Example 186, 2-((Cyclopropylmethyl)amino)-N-(5-(2-fluorophenyl)pyridin-3-yl)pyrimidine-4-carboxamide]: the half-maximal inhibitory concentration (IC50) turned out to be 6 nM at GSK3β, 5000 nM in the experiment with pTau and 9.9 nM on GSK3α.

`CS(=O)(=O)c1ccc(Nc2nccc(C(=O)Nc3cnccc3-c3ccccc3)n2)cc1` [Example 15, 2-((4-(Methylsulfonyl)phenyl)amino)-N-(4-phenylpyridin-3-yl)pyrimidine-4-carboxamide]: the 50% inhibitory concentration (IC50) on GSK3β was determined as 0.27 nM; in the experiment with pTau it was 10 nM; on GSK3α it was 0.19 nM.

Take `O=C(Nc1cnccc1OCC(F)(F)F)c1ccnc(NCc2cc(C(F)(F)F)cc(C(F)(F)F)c2)n1` [Example 144, 2-((3,5-Bis(trifluoromethyl)benzyl)amino)-N-(4-(2,2,2-trifluoroethoxy)pyridin-3-yl)pyrimidine-4-carboxamide]: the half-maximal inhibitory concentration (IC50) at GSK3β was 210 nM; in the experiment with pTau, 10000 nM; on GSK3α it was 200 nM.

With `COc1ccc(Nc2nccc(C(=O)Nc3cnccc3-c3ccccc3)n2)cc1F` [Example 19, 2-((3-Fluoro-4-methoxyphenyl)amino)-N-(4-phenylpyridin-3-yl)pyrimidine-4-carboxamide], the IC50 amounted to 0.18 nM on GSK3β, 17 nM in the experiment with pTau and 0.17 nM on GSK3α.

As to `O=C(Nc1cncnc1)c1ccnc(NCC2CC2c2ccc(F)cc2)n1` (stereo not drawn) [Example 198, 2-(((2-(4-Fluorophenyl)cyclopropyl)methyl)amino)-N-(pyrimidin-5-yl)pyrimidine-4-carboxamide], the half-maximal inhibitory concentration (IC50) on GSK3β turned out to be 35 nM; with pTau it was 6500 nM; on GSK3α, 28 nM.

On to `O=C(Nc1cncnc1)c1ccnc(NCC2CC2c2cccc(F)c2)n1` (stereo not drawn) [Example 200, 2-(((2-(3-Fluorophenyl)cyclopropyl)methyl)amino)-N-(pyrimidin-5-yl)pyrimidine-4-carboxamide], for which the IC50 stood at 53 nM at GSK3β, 6400 nM with pTau and 59 nM on GSK3α.

With `O=C(Nc1cnccc1-c1ccccc1)c1ccnc(Nc2ccc(F)nc2)n1` [Example 86, 2-((6-Fluoropyridin-3-yl)amino)-N-(4-phenylpyridin-3-yl)pyrimidine-4-carboxamide], the half-maximal inhibitory concentration (IC50) stood at 0.8 nM at GSK3β, 68 nM in the experiment with pTau and 0.4 nM at GSK3α.

Consider `CC(Nc1nccc(C(=O)Nc2cnccc2OCC(F)(F)F)n1)C(C)(C)C` (stereo not drawn) [Example 126, 2-((3,3-Dimethylbutan-2-yl)amino)-N-(4-(2,2,2-trifluoroethoxy)pyridin-3-yl)pyrimidine-4-carboxamide], for which the IC50 at GSK3β was found to be 1.1 nM; in the experiment on pTau it was 110 nM; on GSK3α, 0.41 nM.

Turning to `O=C(Nc1cnccc1-c1ccccc1)c1ccnc(NCC2CC2)n1` [Example 147, 2-((Cyclopropylmethyl)amino)-N-(4-phenylpyridin-3-yl)pyrimidine-4-carboxamide], the half-inhibitory concentration (IC50) was 0.14 nM at GSK3β, 20 nM in the experiment on pTau and 0.14 nM on GSK3α.

`O=C(Nc1cnccc1-c1ccccc1)c1ccnc(Nc2ccc(Cl)cc2Cl)n1` [Example 23, 2-((2,4-Dichlorophenyl)amino)-N-(4-phenylpyridin-3-yl)pyrimidine-4-carboxamide]: the IC50 at GSK3β is 6.2 nM; with pTau it was 1600 nM; at GSK3α, 4.8 nM.

Take `O=C(Nc1cncnc1)c1ccnc(NCC2CC2c2ccc(F)cc2F)n1` (stereo not drawn) [Example 197, 2-(((2-(2,4-Difluorophenyl)cyclopropyl)methyl)amino)-N-(pyrimidin-5-yl)pyrimidine-4-carboxamide]: the IC50 on GSK3β is 24 nM; in the experiment with pTau, 5100 nM; at GSK3α, 21 nM.

In the case of `CC(=O)Nc1ccc(Nc2nccc(C(=O)Nc3cnccc3-c3ccccc3)n2)cn1` [Example 87, 2-((6-Acetamidopyridin-3-yl)amino)-N-(4-phenylpyridin-3-yl)pyrimidine-4-carboxamide], the IC50 amounted to 1.4 nM on GSK3β, 150 nM with pTau and 0.92 nM at GSK3α.

In the case of `O=C(Nc1cncnc1Nc1ccccc1)c1ccnc(Nc2ccccc2)n1` [Example 75, 2-(Phenylamino)-N-(4-(phenylamino)pyrimidin-5-yl)pyrimidine-4-carboxamide], the concentration for half-maximal inhibition (IC50) amounted to 48 nM on GSK3β, 4500 nM with pTau and 33 nM on GSK3α.

For the compound `O=C(Nc1cnccc1C1CCOCC1)c1ccnc(Nc2ccc(OC(F)F)nc2)n1` [Example 80, 2-((6-(Difluoromethoxy)pyridin-3-yl)amino)-N-(4-(tetrahydro-2H-pyran-4-yl)pyridin-3-yl)pyrimidine-4-carboxamide], the IC50 amounted to 2.4 nM at GSK3β, 86 nM in the experiment on pTau and 0.65 nM on GSK3α.

Take `O=C(Nc1cnccc1-c1ccccc1)c1ccnc(Nc2ccc(C(F)(F)F)nc2)n1` [Example 39, N-(4-Phenylpyridin-3-yl)-2-((6-(trifluoromethyl)pyridin-3-yl)amino)pyrimidine-4-carboxamide]: the 50% inhibitory concentration (IC50) was determined as 3.4 nM on GSK3β, 470 nM in the experiment on pTau and 1.5 nM on GSK3α.

Turning to `O=C(Nc1cnccc1OCC(F)(F)F)c1ccnc(NCc2cccc(C(F)(F)F)c2)n1` [Example 139, N-(4-(2,2,2-Trifluoroethoxy)pyridin-3-yl)-2-((3-(trifluoromethyl)benzyl)amino)pyrimidine-4-carboxamide], the half-maximal inhibitory concentration (IC50) on GSK3β is 6.3 nM; in the experiment on pTau, 570 nM; at GSK3α it was 5.4 nM.

In the case of `O=C(Nc1cncc(-c2ccccc2F)c1)c1ccnc(Nc2cccc(OC(F)(F)F)c2)n1` [Example 187, N-(5-(2-Fluorophenyl)pyridin-3-yl)-2-((3-(trifluoromethoxy)phenyl)amino)pyrimidine-4-carboxamide], the IC50 was found to be 13 nM on GSK3β, 2500 nM in the experiment with pTau and 7.9 nM at GSK3α.

Take `O=C(Nc1cncnc1OCC(F)(F)F)c1ccnc(Nc2ccc(OC(F)(F)F)cc2)n1` [Example 69, N-(4-(2,2,2-Trifluoroethoxy)pyrimidin-5-yl)-2-((4-(trifluoromethoxy)phenyl)amino)pyrimidine-4-carboxamide]: the IC50 on GSK3β was 0.56 nM; in the experiment on pTau it was 160 nM; on GSK3α, 0.6 nM.

Turning to `Cc1ccc(Nc2nccc(C(=O)Nc3cnccc3OCC(F)(F)F)n2)cc1` [Example 54, 2-(p-Tolylamino)-N-(4-(2,2,2-trifluoroethoxy)pyridin-3-yl)pyrimidine-4-carboxamide], the IC50 stood at 0.12 nM at GSK3β, 5.1 nM with pTau and 0.08 nM at GSK3α.

For `O=C(Nc1cnccc1-c1ccc(F)cc1)c1ccnc(NC2CC2)n1` [Example 153, 2-(Cyclopropylamino)-N-(4-(4-fluorophenyl)pyridin-3-yl)pyrimidine-4-carboxamide], the IC50 came out at 0.82 nM on GSK3β, 55 nM in the experiment on pTau and 0.65 nM on GSK3α.

As for `CC(Nc1nccc(C(=O)Nc2cnccc2OCC(F)(F)F)n1)C12CC3CC(CC(C3)C1)C2` (stereo not drawn) [Example 143, 2-((1-(Adamantan-1-yl)ethyl)amino)-N-(4-(2,2,2-trifluoroethoxy)pyridin-3-yl)pyrimidine-4-carboxamide], the IC50 on GSK3β is 33 nM; in the experiment on pTau it was 4900 nM; on GSK3α it was 73 nM.

The values are drawn from patent publication US10752609B2, “GSK-3 inhibitors” (priority 2016, dated 2020).
